Read-outs that look alike come from different tables or passages of the source. Numbered stars: 1 amine (or outer) side, 2 acyl side, 3 side chain; on linkers, the order of the positions; unused ones are H or OH. Bridge positions count the residues as written; N and C are the ends. Square brackets hold non-standard residues; d marks the D form. Peptide text beside a SMILES is read from it. Tartaroyl(2R,3R-(OAc)2) = CC(=O)O[C@@H](C(=O)[*:1])[C@@H](OC(C)=O)C(=O)[*:2]; Phe(4-CF3) = N[C@@H](Cc1ccc(C(F)(F)F)cc1)C(=O)O; Bip = N[C@@H](Cc1ccc(-c2ccccc2)cc1)C(=O)O; dPhe(4-NH2) = Nc1ccc(C[C@@H](N)C(=O)O)cc1; Phe(4-Br) = N[C@@H](Cc1ccc(Br)cc1)C(=O)O; Phe(4-NH2) = Nc1ccc(C[C@H](N)C(=O)O)cc1; d(hPhe) = N[C@H](CCc1ccccc1)C(=O)O; d2Thi = N[C@H](Cc1cccs1)C(=O)O; Suc = O=C(CCC(=O)[*:2])[*:1]; GABA = NCCCC(=O)O
Assays:
[1] = tested on: TNF-α (degradation of IkB in HeLa cells or A431 cells); experiment: Human cell-based assay: inhibition of TNF-α induced degradation of IkB; conditions: for inhibition at 10 µM: read-out: Inhibition at Various Compound Concentrations, 10 μM; for inhibition at 5 µM: read-out: Inhibition at Various Compound Concentrations, 5 μM; for inhibition at 25 µM: 25 μM compound, read-out: Inhibition at Various Compound Concentrations, 25 μM
Procedure: We used a human cell-based assay to determine the TNF-α antagonistic activity of the compounds of this invention based upon the ability of the compounds to inhibit the degradation of IkB in those cells. The assay was performed on either HeLa cells or A431 cells.
On Day 1, wells of a 24-well tissue culture plate were seeded with cells that had been harvested from cultures in T-75 flasks by standard trypsin/EDTA treatment. The harvested cells were suspended in EMEM/10% FBS/P/S (100,000 HeLa cells/mL or 200,000 A431 cells/mL) and 1 mL aliquots were placed into each well. The cells were incubated overnight at 37° C. in a humidified CO2 incubator. On day 2, the cells were approximately 95% confluent.
Test and control compounds were diluted to a 1 mM solution by dilution in DMSO. The assay was run in Costar tubes. Into each tube was placed 2.5 or 5.0 μL of test compound (for testing 5 μM and 10 μM concentrations, respectively), 2.5 μL of 100× TNF-α solution (200 ng/mL TNF-α in EMEM containing 1μg/mL cycloheximide) and, for those tubes containing 2.5 μL of compound, an additional 2.5 μL of DMSO. To each tube was then added 0.5 mL of EMEM containing 1μg/mL cycloheximide. Negative control tubes contained either a) no compound, or b) no TNF-α. Tubes were then incubated for 30 minutes at room temperature.
Once incubation had begun, the media was aspirated from the cells in the 24-well plates. Sufficient EMEM/10% FBS/P/S containing 1 ug/mL cycloheximide was then added to cover the cells (approximately 3 mL) and the cells were retuned to the 37° C. humidified CO2 incubator until compound incubation was completed. The media was then aspirated from the cells, 0.2 mL of the compound solution was added and the cells re-incubated at 37° C. for 30 minutes. The plates were then placed on ice, the compound solution was aspirated from each well, and the cells washed once with 1 mL of cold PBS. Cells were then fixed with 500 μL of 3.7% formaldehyde in PBS (“fix solution”) for 20 minutes at room temperature. The fix solution was decanted and the cells permeabilized by 4× washing with 500 uL PBS/0.1% Triton X-100. After the final permeabilization wash, the cells were treated with 500 uL of Odyssey blocking buffer (OBB) and incubated at room temperature with shaking for 90 minutes.
The OBB was decanted and then to each well was then added 125 μL each of mouse anti-IkB CST#4814 (diluted 1:200 in OBB) and rabbit anti-beta-tubulin CST#2146 (diluted 1:200 in OBB). Plates were sealed with parafin and incubated overnight at room temperature with shaking.
On day 3, the antibody solution was removed from the cells and the cells were washed 5× with 0.5 mL PBST for five minutes each on a shaker. To each well was then aded 125 μL of a secondary antibody solution containing goat anti-mouse IgG-IRDye 800 and goat anti-rabbit IgG-IRDye (each diluted 1:500 in OBB+0.2% Tween 20). The plates were covered with aluminum foil and incubated for 1 hour at room temperature with shaking. The secondary antibody solution was removed and the cells washed 3× with 0.5 mL PBST for five minutes each on a shaker. Cells were then scanned by LICOR with the following settings: 700 intensity=6.0, 800 intensity=6.5; microplate2 settings with 3.0 mm offset; 169 resolution. LICOR values were fitted to an equation for a sigmoidal curve and IC50 values calculated from the fitted parameters. […] Blank cells indicate that the compound was not tested at that concentration. Certain compounds that were tested more than once and the values reflect the average of the multiple tests.

[2] = biological target: T1, TNFα / TNFα receptor (TNFα R1/Fc) (Homo sapiens, UniProt P01375); experiment: Inhibition of binding of TNFα to the TNFα receptor (plate ELISA competition); conditions: Table 2
T1 construct: purchased R&D Systems
T1 sequence (P01375 77-233 limits assumed, species assumed): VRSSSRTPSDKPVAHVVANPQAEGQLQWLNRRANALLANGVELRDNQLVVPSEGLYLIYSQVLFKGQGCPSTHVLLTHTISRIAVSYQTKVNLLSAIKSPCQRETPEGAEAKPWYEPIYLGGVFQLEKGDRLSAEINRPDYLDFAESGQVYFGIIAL
Procedure, shortened: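 Compound dilutions were preincubated 30 min at RT with 8.33 nM TNFα R1/Fc in PBST with 2% DMSO, then added to wells coated with 15 nM TNFα for 30 min. Bound receptor was detected with HRP anti-human Fc and TMB, read as A450.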

[3] = 10 μM compound, HeLa or A431 cells
[4] = read-out: Activity (IC50, inhibition of TNFα binding to TNFα R1/Fc)
[5] = 5 μM compound, HeLa or A431 cells

SMILES	inhibition at 10 µM [1, 3]	IC50 [2, 4]	inhibition at 5 µM [1, 5]	inhibition at 5 µM [1]	inhibition at 10 µM [1]	inhibition at 25 µM ([1]; HeLa or A431 cells)	IC50 ([2]; Activity (IC50, inhibition of TNFα binding to TNFα R1/Fc))
O=C1CCC(=O)N[C@H](Cc2cccs2)C(=O)N[C@@H](Cc2ccc(Br)cc2)C(=O)N[C@H](Cc2ccccc2)C(=O)N[C@H](C(=O)N[C@@H](Cc2ccccc2)C(=O)O)Cc2ccc(cc2)N1 [Compound 201] ([d2Thi][Phe(4-Br)][dF][Phe(4-NH2)]F-OH; linker N-4 via Suc)	10 to 50%	< 10 µM	–	–	–	–	–
C[C@@H](NC(=O)[C@@H]1Cc2ccc(cc2)OCC(=O)N[C@H](Cc2cccs2)C(=O)N[C@@H](Cc2ccc(-c3ccccc3)cc2)C(=O)N[C@H](CCc2ccccc2)C(=O)N1)C(=O)O [Compound 305]	< 10%	< 10 µM	–	–	–	–	–
NCCCC(=O)N[C@@H]1CC(=O)Nc2ccc(cc2)C[C@@H](C(=O)O)NC(=O)[C@@H](Cc2ccccc2)NC(=O)[C@H](Cc2ccc(-c3ccccc3)cc2)NC(=O)[C@@H](Cc2cccs2)NC1=O [Compound 380] (H-[GABA][dD][d2Thi][Bip][dF][Phe(4-NH2)]-OH; lactam 2-6)	< 10%	< 10 µM	< 10%	–	–	–	–
O=C1CCC(=O)N[C@H](Cc2cccs2)C(=O)N[C@@H](Cc2ccc(-c3ccccc3)cc2)C(=O)N[C@H](CCc2ccccc2)C(=O)N[C@H](C(=O)O)Cc2ccc(cc2)N1 [Compound 47] ([d2Thi][Bip][d(hPhe)][Phe(4-NH2)]-OH; linker N-4 via Suc)	< 10%	< 10 µM	–	–	–	–	–
COc1ccc(-c2ccc(C[C@@H]3NC(=O)[C@H](Cc4cccs4)NC(=O)COc4ccc(cc4)C[C@@H](C(=O)O)NC(=O)[C@H](Cc4ccccc4)NC3=O)cc2)cc1 [Compound 364]	–	< 10 µM	–	50 to 80%	10 to 50%	–	–
CC(=O)O[C@H]1C(=O)Nc2ccc(cc2)C[C@H](C(=O)N[C@@H](Cc2ccccc2)C(=O)O)NC(=O)[C@@H](Cc2ccccc2)NC(=O)[C@H](Cc2ccc(Br)cc2)NC(=O)[C@@H](Cc2cccs2)NC(=O)[C@@H]1OC(C)=O [Compound 410] ([d2Thi][Phe(4-Br)][dF][dPhe(4-NH2)]F-OH; linker N-4 via Tartaroyl(2R,3R-(OAc)2))	10 to 50%	< 10 µM	< 10%	–	–	–	–
C[C@H](NC(=O)[C@@H]1Cc2ccc(cc2)NC(=O)CCC(=O)N[C@H](Cc2cccs2)C(=O)N[C@@H](Cc2ccc(-c3ccccc3)cc2)C(=O)N[C@H](Cc2ccccc2)C(=O)N1)C(=O)O [Compound 20] ([d2Thi][Bip][dF][Phe(4-NH2)]A-OH; linker N-4 via Suc)	–	< 10 µM	–	–	–	< 10%	–
O=C1COc2ccc(cc2)C[C@@H](C(=O)N[C@@H](Cc2ccccc2)C(=O)O)NC(=O)[C@@H](CCc2ccc(C(F)(F)F)cc2)NC(=O)[C@H](Cc2ccccc2)NC(=O)[C@@H](Cc2ccc(C(F)(F)F)cc2)N1 [Compound 157]	50 to 80%	< 10 µM	10 to 50%	–	–	–	–
O=C1N[C@H](CCc2ccccc2)C(=O)N[C@@H](C(=O)O)Cc2ccc(cc2)NC(=O)[C@H](O)[C@@H](O)C(=O)N[C@H](Cc2cccs2)C(=O)N[C@H]1Cc1ccc(-c2ccccc2)cc1 [Compound 236]	10 to 50%	< 10 µM	10 to 50%	–	–	–	–
O=C1N[C@H](CCc2ccccc2)C(=O)N[C@@H](C(=O)O)Cc2ccc(cc2)NC(=O)[C@H](O)[C@@H](O)C(=O)N[C@H](Cc2ccccc2)C(=O)N[C@H]1Cc1ccc(Cl)cc1Cl [Compound 239]	< 10%	< 10 µM	< 10%	–	–	–	–
NCCCC(=O)N[C@H]1CC(=O)Nc2ccc(cc2)C[C@@H](C(=O)O)NC(=O)[C@@H](Cc2ccccc2)NC(=O)[C@H](Cc2ccc(-c3ccccc3)cc2)NC(=O)[C@@H](Cc2cccs2)NC1=O [Compound 379] (H-[GABA]D[d2Thi][Bip][dF][Phe(4-NH2)]-OH; lactam 2-6)	10 to 50%	< 10 µM	50 to 80%	–	–	–	–
O=C1CCC(=O)N[C@H](CCc2ccccc2)C(=O)N[C@@H](Cc2ccc(C(F)(F)F)cc2)C(=O)N[C@H](Cc2ccccc2)C(=O)N[C@@H](C(=O)N[C@@H](Cc2ccccc2)C(=O)O)Cc2ccc(cc2)N1 [Compound 12] ([d(hPhe)][Phe(4-CF3)][dF][dPhe(4-NH2)]F-OH; linker N-4 via Suc)	10 to 50%	< 10 µM	10 to 50%	–	–	–	–
NCCCC(=O)N[C@H]1CC(=O)N[C@H](Cc2cccs2)C(=O)N[C@@H](Cc2ccc(-c3ccccc3)cc2)C(=O)N[C@H](Cc2ccccc2)C(=O)N[C@H](C(=O)O)Cc2ccc(cc2)NC1=O [Compound 381]	< 10%	< 10 µM	< 10%	–	–	–	–
O=C1COc2ccc(cc2)C[C@@H](C(=O)N[C@@H](Cc2ccc(O)cc2)C(=O)O)NC(=O)[C@H](Cc2ccccc2)NC(=O)[C@H](Cc2ccc(-c3ccccc3)cc2)NC(=O)[C@H](Cc2cccs2)N1 [Compound 343]	10 to 50%	< 10 µM	< 10%	–	–	–	–
O=C(N[C@H](Cc1ccccc1)C(=O)O)[C@@H]1Cc2ccc(cc2)NC(=O)[C@H](O)[C@@H](O)C(=O)N[C@H](Cc2cccs2)C(=O)N[C@@H](Cc2ccc(-c3ccccc3)cc2)C(=O)N[C@H](Cc2ccccc2)C(=O)N1 [Compound 16]	< 10%	< 10 µM	–	–	–	–	–
O=C1CCC(=O)N[C@H](Cc2cccs2)C(=O)N[C@@H](Cc2ccc(-c3ccccc3)cc2)C(=O)N[C@H](Cc2ccccc2)C(=O)N[C@@H](C(=O)O)Cc2ccc(cc2)N1 [Compound 196] ([d2Thi][Bip][dF][dPhe(4-NH2)]-OH; linker N-4 via Suc)	–	< 10 µM	–	–	–	< 10%	–
O=C(O)[C@H](Cc1ccccc1)NC(=O)[C@@H]1Cc2ccc(cc2)NC(=O)[C@H](O)[C@@H](O)C(=O)N[C@H](Cc2cccs2)C(=O)N[C@@H](Cc2ccc(-c3ccccc3)cc2)C(=O)N[C@H](CCc2ccccc2)C(=O)N1 [Compound 350]	10 to 50%	< 10 µM	10 to 50%	–	–	–	–
NCCCC(=O)N[C@@H]1CC(=O)N[C@H](Cc2cccs2)C(=O)N[C@@H](Cc2ccc(-c3ccccc3)cc2)C(=O)N[C@H](Cc2ccccc2)C(=O)N[C@H](C(=O)O)Cc2ccc(cc2)NC1=O [Compound 382]	< 10%	< 10 µM	10 to 50%	–	–	–	–
COC(=O)[C@H](CC(=O)O)NC(=O)[C@@H]1Cc2ccc(cc2)OCC(=O)N[C@@H](Cc2cccs2)C(=O)N[C@@H](Cc2ccc(-c3ccccc3)cc2)C(=O)N[C@@H](Cc2ccccc2)C(=O)N1 [Compound 327]	< 10%	< 10 µM	10 to 50%	–	–	–	–
O=C1COc2ccc(cc2)C[C@@H](C(=O)N[C@@H](CCc2ccccc2)C(=O)O)NC(=O)[C@@H](CCc2ccccc2)NC(=O)[C@H](Cc2ccc(-c3ccccc3)cc2)NC(=O)[C@@H](Cc2cccs2)N1 [Compound 320]	–	–	–	10 to 50%	> 80%	–	< 10 µM
COC(=O)[C@H](CC(=O)O)NC(=O)[C@@H]1Cc2ccc(cc2)NC(=O)CCC(=O)N[C@H](Cc2cccs2)C(=O)N[C@@H](Cc2ccc(-c3ccccc3)cc2)C(=O)N[C@H](Cc2ccccc2)C(=O)N1 [Compound 29] ([d2Thi][Bip][dF][Phe(4-NH2)]D-OMe; linker N-4 via Suc)	–	< 10 µM	–	–	–	< 10%	–
